What was measured:
AURKC = AURKC (Homo sapiens, UniProt Q9UQB9); assay: KINOMEscan binding assay; settings: read-out: % Ctrl @ 10000 nM
CAMK1G = CAMK1G (Homo sapiens, UniProt Q96NX5); assay: KINOMEscan binding assay; settings: read-out: % Ctrl @ 10000 nM
CLK3 = CLK3 (Homo sapiens, UniProt P49761); assay: KINOMEscan binding assay; settings: read-out: % Ctrl @ 10000 nM
CSNK1G1 = CSNK1G1 (Homo sapiens, UniProt Q9HCP0); assay: KINOMEscan binding assay; settings: read-out: % Ctrl @ 10000 nM
DAPK2 = DAPK2 (Homo sapiens, UniProt Q9UIK4); assay: KINOMEscan binding assay; settings: read-out: % Ctrl @ 10000 nM
Sequence of DAPK2 (Q9UIK4 whole entry): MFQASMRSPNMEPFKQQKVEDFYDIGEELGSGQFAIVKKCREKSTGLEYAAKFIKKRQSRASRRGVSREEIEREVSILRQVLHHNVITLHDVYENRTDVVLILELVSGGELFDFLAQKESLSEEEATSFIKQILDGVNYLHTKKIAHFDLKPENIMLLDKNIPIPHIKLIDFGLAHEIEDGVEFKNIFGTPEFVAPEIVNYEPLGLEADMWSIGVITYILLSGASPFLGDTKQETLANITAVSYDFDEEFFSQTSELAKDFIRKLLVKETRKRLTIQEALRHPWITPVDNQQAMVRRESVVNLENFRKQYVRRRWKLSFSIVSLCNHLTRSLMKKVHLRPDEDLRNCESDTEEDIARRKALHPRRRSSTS

EGFR = EGFR (Homo sapiens, UniProt P00533); assay: KINOMEscan binding assay; settings: read-out: % Ctrl @ 10000 nM
EPHB1 = EPHB1 (Homo sapiens, UniProt P54762); assay: KINOMEscan binding assay; settings: read-out: % Ctrl @ 10000 nM
FLT3 (ITD) = assay: KINOMEscan binding assay
IRAK1 = IRAK1 (Homo sapiens, UniProt P51617); assay: KINOMEscan binding assay; settings: read-out: % Ctrl @ 10000 nM
Sequence of IRAK1 (P51617 whole entry): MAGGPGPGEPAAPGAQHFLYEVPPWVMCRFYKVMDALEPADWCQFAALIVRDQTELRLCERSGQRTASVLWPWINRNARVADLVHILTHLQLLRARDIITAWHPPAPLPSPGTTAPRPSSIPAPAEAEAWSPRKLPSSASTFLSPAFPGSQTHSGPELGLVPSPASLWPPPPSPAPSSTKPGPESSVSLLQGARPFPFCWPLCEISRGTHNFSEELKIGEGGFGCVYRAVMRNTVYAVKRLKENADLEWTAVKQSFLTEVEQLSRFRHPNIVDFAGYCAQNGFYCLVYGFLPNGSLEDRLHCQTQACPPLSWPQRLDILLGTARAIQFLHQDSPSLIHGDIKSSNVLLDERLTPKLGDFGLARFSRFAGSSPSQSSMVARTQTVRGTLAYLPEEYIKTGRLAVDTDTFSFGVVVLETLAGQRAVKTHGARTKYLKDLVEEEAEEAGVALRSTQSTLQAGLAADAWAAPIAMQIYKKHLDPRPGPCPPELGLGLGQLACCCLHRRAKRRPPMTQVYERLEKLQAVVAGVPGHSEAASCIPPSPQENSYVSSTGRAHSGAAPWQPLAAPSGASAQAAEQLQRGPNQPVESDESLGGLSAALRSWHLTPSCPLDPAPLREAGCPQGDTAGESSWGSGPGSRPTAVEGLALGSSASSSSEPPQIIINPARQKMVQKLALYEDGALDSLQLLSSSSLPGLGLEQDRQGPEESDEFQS

[1] = biological target: JAK1 (JH2domain-pseudokinase) (Homo sapiens, UniProt P23458); assay: KINOMEscan binding assay; settings: read-out: % Ctrl @ 10000 nM
Sequence of JAK1 (JH2domain-pseudokinase) (P23458 583-855 limits assumed): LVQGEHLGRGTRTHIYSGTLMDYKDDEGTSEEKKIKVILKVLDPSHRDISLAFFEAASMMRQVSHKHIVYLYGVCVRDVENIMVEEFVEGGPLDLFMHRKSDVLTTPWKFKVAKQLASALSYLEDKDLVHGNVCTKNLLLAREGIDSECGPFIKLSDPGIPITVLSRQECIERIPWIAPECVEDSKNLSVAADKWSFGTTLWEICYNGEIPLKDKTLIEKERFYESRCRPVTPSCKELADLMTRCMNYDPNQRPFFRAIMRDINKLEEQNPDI

[2] = biological target: JAK2 (JH1domain-catalytic) (Homo sapiens, UniProt O60674); assay: KINOMEscan binding assay; settings: read-out: % Ctrl @ 10000 nM
Sequence of JAK2 (JH1domain-catalytic) (O60674 849-1124 limits assumed): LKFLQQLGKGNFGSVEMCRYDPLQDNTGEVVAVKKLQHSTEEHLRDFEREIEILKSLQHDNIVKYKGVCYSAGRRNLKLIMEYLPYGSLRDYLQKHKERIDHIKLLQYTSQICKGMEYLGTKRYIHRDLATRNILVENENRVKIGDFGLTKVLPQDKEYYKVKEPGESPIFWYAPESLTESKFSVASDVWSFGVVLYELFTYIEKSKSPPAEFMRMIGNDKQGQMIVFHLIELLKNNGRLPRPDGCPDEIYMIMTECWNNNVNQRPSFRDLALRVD

[3] = biological target: JAK3 (JH1domain-catalytic) (Homo sapiens, UniProt P52333); assay: KINOMEscan binding assay; settings: read-out: % Ctrl @ 10000 nM
KIT (A829P) = KIT (A829P) (Homo sapiens, UniProt P10721, A829P); assay: KINOMEscan binding assay; settings: read-out: % Ctrl @ 10000 nM
MAST1 = MAST1 (Homo sapiens, UniProt Q9Y2H9); assay: KINOMEscan binding assay; settings: read-out: % Ctrl @ 10000 nM
MLK1 = MLK1 (Homo sapiens, UniProt P80192); assay: KINOMEscan binding assay; settings: read-out: % Ctrl @ 10000 nM
PRKCD = PRKCD (Homo sapiens, UniProt Q05655); assay: KINOMEscan binding assay; settings: read-out: % Ctrl @ 10000 nM
Sequence of PRKCD (Q05655 whole entry): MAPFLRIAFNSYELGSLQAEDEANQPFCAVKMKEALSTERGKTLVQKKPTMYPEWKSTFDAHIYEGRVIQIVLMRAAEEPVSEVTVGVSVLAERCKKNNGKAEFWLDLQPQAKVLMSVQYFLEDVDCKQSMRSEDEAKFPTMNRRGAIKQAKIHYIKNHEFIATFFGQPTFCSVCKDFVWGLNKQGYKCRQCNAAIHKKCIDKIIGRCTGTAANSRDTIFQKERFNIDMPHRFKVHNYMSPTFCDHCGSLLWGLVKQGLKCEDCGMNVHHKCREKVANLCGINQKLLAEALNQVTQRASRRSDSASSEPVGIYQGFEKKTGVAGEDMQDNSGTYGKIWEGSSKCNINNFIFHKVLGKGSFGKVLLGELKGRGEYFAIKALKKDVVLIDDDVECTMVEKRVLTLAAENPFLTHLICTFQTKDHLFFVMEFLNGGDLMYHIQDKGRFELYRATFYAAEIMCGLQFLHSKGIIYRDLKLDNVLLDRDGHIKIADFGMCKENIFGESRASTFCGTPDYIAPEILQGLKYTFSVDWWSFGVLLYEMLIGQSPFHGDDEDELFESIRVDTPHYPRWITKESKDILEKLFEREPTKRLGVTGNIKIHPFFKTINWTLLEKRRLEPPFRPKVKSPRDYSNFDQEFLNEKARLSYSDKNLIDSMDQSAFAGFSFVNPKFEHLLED

PRKCQ = PRKCQ (Homo sapiens, UniProt Q04759); assay: KINOMEscan binding assay; settings: read-out: % Ctrl @ 10000 nM
Sequence of PRKCQ (Q04759 whole entry): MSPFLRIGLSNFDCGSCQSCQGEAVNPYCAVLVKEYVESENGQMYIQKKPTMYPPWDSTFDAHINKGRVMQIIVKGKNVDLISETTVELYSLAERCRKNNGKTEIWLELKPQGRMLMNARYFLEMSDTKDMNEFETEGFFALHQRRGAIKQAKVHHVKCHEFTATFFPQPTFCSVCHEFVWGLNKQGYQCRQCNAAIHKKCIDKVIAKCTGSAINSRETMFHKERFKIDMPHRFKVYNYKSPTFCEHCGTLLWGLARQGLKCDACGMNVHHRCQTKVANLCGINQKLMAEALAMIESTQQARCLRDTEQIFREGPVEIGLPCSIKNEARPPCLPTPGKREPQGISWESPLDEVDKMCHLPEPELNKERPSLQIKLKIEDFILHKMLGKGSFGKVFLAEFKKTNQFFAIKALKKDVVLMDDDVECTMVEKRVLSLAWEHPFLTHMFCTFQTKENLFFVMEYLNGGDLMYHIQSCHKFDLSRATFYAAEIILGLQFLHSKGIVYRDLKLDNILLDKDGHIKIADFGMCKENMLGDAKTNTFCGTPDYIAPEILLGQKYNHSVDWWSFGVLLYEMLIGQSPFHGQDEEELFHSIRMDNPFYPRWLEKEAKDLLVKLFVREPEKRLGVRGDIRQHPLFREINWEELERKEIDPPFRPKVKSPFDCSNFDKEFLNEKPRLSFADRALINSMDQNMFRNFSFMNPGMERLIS

RET (V804L) = RET (V804L) (Homo sapiens, UniProt P07949, V804L); assay: KINOMEscan binding assay; settings: read-out: % Ctrl @ 10000 nM
[4] = biological target: RSK1 Kin.Dom.1-N-terminal (Homo sapiens, UniProt Q15418); assay: KINOMEscan binding assay; settings: read-out: % Ctrl @ 10000 nM
Sequence of RSK1 Kin.Dom.1-N-terminal (Q15418 62-321 limits assumed): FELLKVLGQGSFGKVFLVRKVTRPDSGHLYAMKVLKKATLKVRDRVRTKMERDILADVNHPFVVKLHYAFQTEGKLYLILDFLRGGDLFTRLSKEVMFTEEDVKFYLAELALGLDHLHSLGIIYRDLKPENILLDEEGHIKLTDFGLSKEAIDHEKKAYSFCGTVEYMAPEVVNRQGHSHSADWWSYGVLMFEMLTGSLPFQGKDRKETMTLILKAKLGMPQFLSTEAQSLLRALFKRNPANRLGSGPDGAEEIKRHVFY

YANK1 = biological target: T1, YANK1 (Homo sapiens, UniProt Q8WU08); assay: KINOMEscan binding assay; settings: read-out: % Ctrl @ 10000 nM
T1 construct: purchased DiscoveRx (KINOMEscan, LeadHunter Discovery services)
T1 sequence (Q8WU08 whole entry): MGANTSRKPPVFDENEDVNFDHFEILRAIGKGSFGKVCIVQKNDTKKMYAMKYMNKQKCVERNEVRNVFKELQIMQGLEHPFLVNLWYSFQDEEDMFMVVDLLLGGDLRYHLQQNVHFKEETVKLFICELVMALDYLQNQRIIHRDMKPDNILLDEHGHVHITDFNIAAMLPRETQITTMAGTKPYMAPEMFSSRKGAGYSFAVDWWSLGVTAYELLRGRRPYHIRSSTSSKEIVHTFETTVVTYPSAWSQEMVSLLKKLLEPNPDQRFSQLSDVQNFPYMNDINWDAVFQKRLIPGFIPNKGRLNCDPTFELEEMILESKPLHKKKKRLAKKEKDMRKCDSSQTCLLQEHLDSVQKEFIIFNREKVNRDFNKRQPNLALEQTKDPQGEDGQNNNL

non-mutant kinases = assay: KINOMEscan kinase screening panel, binding capacity and Selectivity Score; settings: 10 μM, 395 non-mutant kinases
Description: The assay was carried out according to the established KINOMEscan® technology (DiscoveRx® LeadHunter®, Discovery services, www.discoverx.com). […] Screening “hits” are identified by measuring the amount of kinase captured in test versus control samples by using a quantitative, qPCR method that detects an associated DNA label. For most assays, kinase-tagged T7 phage strains ware grown in parallel in 24-well blocks in an E. coli host derived from the BL21 strain. E. coli were grown to log-phase and infected with T7 phage from a frozen stock (multiplicity of infection=0.4) and incubated with shading at 32° C. until lysis (90-150 minutes). The lysates were centrifuged (6,000×g) and filtered (0.2 μm) to remove cell debris. The remaining kinases were produced in HEK293 cells and subsequently tagged with DMA for qPCR detection. Streptavidin-coated magnetic beads were treated with biotinylated small molecule ligands for 30 minutes at room temperature to generate affinity resins for kinase assays. The liganded beads were blocked with excess biotin and washed with blocking buffer (SeaBlock (Pierce), 1% BSA, 0.05 % Tween 20, 1 mM DTT) to remove unbound ligand and to reduce non-specific phage binding. […] All reactions were performed in polypropylene 384-well plates in a final volume of 0.04 ml. The assay plates were incubated at room temperature with shaking for 1 hour and the affinity beads were washed with wash buffer (1×PBS, 0.05% Tween 20). The beads were then re-suspended in elution buffer (1×PBS, 0.05 % Tween 20, 0.5 μM non-biotinylated affinity ligand) and incubated at room temperature with shaking for 30 minutes. The kinase concentration in the eluates was measured by qPCR.
Results were reported as “% Ctrl”, where lower numbers indicate stronger hits. The calculation of the “% Ctrl” was as follow:
In addition to the binding capacity, the Selectivity Score (or S-score) was calculated (Karaman, M. W. et al. A quantitative analysis of kinase inhibitor selectivity. Nat. Biotechnol. 26, 127-132 (2008). The S-score is a quantitative measure of compound selectivity. It is calculated by dividing the number of kinases that a compound binds to by the total number of distinct kinases tested, excluding mutant variants. S-score−Number of hits/Number of assays
S(35)=(number of non-mutant kinases with % Ctrl<35)/(number of non-mutant kinases tested)
S(10)=(number of non-mutant kinases with % Ctrl<10)/(number of non-mutant kinases tested)
S(1)=(number of non-mutant kinases with % Ctrl<1)/(number of non-mutant kinases tested)
and provides a quantitative method of describing compound selectivity to facilitate comparison of different compounds. The screening concentration was 10 μM.

Sequence of CLK3 (P49761 whole entry): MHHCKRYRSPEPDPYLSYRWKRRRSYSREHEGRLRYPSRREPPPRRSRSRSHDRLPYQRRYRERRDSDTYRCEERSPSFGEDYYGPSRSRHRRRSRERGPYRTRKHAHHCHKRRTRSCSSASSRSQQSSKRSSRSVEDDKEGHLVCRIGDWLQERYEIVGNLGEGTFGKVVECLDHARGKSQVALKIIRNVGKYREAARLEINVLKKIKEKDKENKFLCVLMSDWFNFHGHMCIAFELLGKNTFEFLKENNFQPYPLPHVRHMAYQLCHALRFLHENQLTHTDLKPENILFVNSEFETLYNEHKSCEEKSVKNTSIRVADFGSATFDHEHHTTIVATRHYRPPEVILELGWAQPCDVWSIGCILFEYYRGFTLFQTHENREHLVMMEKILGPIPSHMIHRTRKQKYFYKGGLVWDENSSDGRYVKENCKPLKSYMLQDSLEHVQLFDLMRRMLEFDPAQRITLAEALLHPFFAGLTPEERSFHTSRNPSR
Sequence of CSNK1G1 (Q9HCP0 whole entry): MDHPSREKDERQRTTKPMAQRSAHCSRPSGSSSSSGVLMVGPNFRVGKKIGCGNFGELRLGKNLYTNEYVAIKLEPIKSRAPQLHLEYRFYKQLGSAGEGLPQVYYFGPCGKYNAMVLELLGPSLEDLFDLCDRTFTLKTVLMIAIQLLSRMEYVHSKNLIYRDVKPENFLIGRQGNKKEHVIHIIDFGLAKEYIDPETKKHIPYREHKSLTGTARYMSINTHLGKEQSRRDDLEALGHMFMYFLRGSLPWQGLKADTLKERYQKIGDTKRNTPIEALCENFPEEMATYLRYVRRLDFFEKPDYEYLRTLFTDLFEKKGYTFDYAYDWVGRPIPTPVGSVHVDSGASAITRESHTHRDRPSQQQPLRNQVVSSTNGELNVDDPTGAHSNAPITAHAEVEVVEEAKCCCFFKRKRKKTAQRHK
Sequence of AURKC (Q9UQB9 whole entry): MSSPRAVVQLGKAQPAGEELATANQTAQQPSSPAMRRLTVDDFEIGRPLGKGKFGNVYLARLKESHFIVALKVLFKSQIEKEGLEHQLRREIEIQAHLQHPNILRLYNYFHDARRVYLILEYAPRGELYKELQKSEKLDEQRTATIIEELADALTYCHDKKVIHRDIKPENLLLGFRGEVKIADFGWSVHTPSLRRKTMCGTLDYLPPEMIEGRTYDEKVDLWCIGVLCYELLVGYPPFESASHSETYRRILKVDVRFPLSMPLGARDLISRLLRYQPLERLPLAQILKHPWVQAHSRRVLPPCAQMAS

SMILES | remaining binding at 10 µM (AURKC) | remaining binding at 10 µM (CAMK1G) | remaining binding at 10 µM (CLK3) | remaining binding at 10 µM (CSNK1G1) | remaining binding at 10 µM (DAPK2) | remaining binding at 10 µM (EGFR) | remaining binding at 10 µM (EPHB1) | remaining binding at 10 µM (IRAK1) | remaining binding at 10 µM [1] | remaining binding at 10 µM [2] | remaining binding at 10 µM [3] | remaining binding at 10 µM (KIT (A829P)) | remaining binding at 10 µM (MAST1) | remaining binding at 10 µM (MLK1) | remaining binding at 10 µM (PRKCD) | remaining binding at 10 µM (PRKCQ) | remaining binding at 10 µM (RET (V804L)) | remaining binding at 10 µM [4] | remaining binding at 10 µM (YANK1) | other results
Nc1ncc(-c2nc3ccccc3o2)c(-c2ccncc2)n1 [Comparative Compound 324, 5-(1,3-benzoxazol-2-yl)-4-(pyridine-4-yl)pyrimidin-2-amine] | 100% | 89% | 99% | 93% | 100% | 100% | 86% | 87% | 17% | 98% | 74% | 79% | 86% | 100% | 86% | 100% | 86% | 86% | 66% | % Ctrl @ 10000 nM (FLT3 (ITD)): 85 % Ctrl; Number of Hits S (1) (non-mutant kinases; % Ctrl<1): 0; S-score S (1) (non-mutant kinases; % Ctrl<1): 0; Number of Hits S (10) (non-mutant kinases; % Ctrl<10): 4; S-score S (10) (non-mutant kinases; % Ctrl<10): 0.01; Number of Hits S (35) (non-mutant kinases; % Ctrl<35): 8; S-score S (35) (non-mutant kinases; % Ctrl<35): 0.02
CNc1c(C(N)=O)c2ccccn2c1C(=O)c1ccc(F)cc1 [Compound A, 2-methyl-amino-3-[(4-fluorophenyl)carbonyl]indolizine-1-carboxamide] | 100% | 65% | 94% | 88% | 85% | 49% | 69% | 93% | 71% | 90% | 100% | 86% | 75% | 95% | 93% | 88% | 67% | 72% | 81% | 
